The supplement of paper PMC13380429
Structures can show the parent of a compound that is named as a salt. ± gives the standard deviation of the averaged measurements.

What was measured:
Settings in all cases: 72 h
Calu-3 [1] = test: drug sensitivity score (DSS) for viability; higher = more toxic; extreme values may be limits of the assay
Vero E6 [2] = test: as above
HepG2 [3] = test: relative viability EC50 (midpoint between 100% and the lowest measured viability); higher = less toxic
Vero E6 [4] = test: cell viability relative to DMSO; higher = less toxic
HepG2 [5] = test: as above
U2OS [6] = test: as above
Caco-2 [7] = test: as above
HepG2 [8] = test: drug sensitivity score (DSS) for viability; higher = more toxic; extreme values may be limits of the assay
U2OS [9] = test: as above
Caco-2 [10] = test: as above
Caco-2 [11] = test: relative viability EC50 (midpoint between 100% and the lowest measured viability); higher = less toxic
Calu-3 [12] = test: cell viability relative to DMSO; higher = less toxic
Vero E6 [13] = test: relative viability EC50 (midpoint between 100% and the lowest measured viability); higher = less toxic
U2OS [14] = test: as above

SMILES	drug sensitivity score (Calu-3 [1])	drug sensitivity score (Vero E6 [2])	relative viability EC50 (HepG2 [3])	cell viability (Vero E6 [4]; 1 nM)	cell viability (Vero E6 [4]; 10 nM)	cell viability (Vero E6 [4]; 100 nM)	cell viability (Vero E6 [4]; 1000 nM)	cell viability (Vero E6 [4]; 10000 nM)	cell viability (HepG2 [5]; 1 nM)	cell viability (HepG2 [5]; 10 nM)	cell viability (HepG2 [5]; 100 nM)	cell viability (HepG2 [5]; 1000 nM)	cell viability (HepG2 [5]; 10000 nM)	cell viability (U2OS [6]; 1 nM)	cell viability (U2OS [6]; 10 nM)	cell viability (U2OS [6]; 100 nM)	cell viability (U2OS [6]; 1000 nM)	cell viability (U2OS [6]; 10000 nM)	cell viability (Caco-2 [7]; 1 nM)	cell viability (Caco-2 [7]; 10 nM)	cell viability (Caco-2 [7]; 100 nM)	cell viability (Caco-2 [7]; 1000 nM)	cell viability (Caco-2 [7]; 10000 nM)	drug sensitivity score (HepG2 [8])	drug sensitivity score (U2OS [9])	drug sensitivity score (Caco-2 [10])	relative viability EC50 (Caco-2 [11])	cell viability (Calu-3 [12]; 1 nM)	cell viability (Calu-3 [12]; 10 nM)	cell viability (Calu-3 [12]; 100 nM)	cell viability (Calu-3 [12]; 1000 nM)	cell viability (Calu-3 [12]; 10000 nM)	relative viability EC50 (Vero E6 [13])	relative viability EC50 (U2OS [14])
CCN(CC)CCOC(=O)C(Cc1cccc2ccccc12)CC1CCCO1 (mixture of isomers) [naftidrofuryl]	0	0.2																																
COc1cc(N2CCC(N3CCN(C)CC3)CC2)ccc1Nc1ncnc(Nc2ccccc2S(=O)(=O)C(C)C)n1 [ASP3026]		4	1.98 µM	92.9%	97.9%	100%	90.9%	51.7%	107%	96.6%	99.7%	88.7%	25.2%	100%	94.5%	99.6%	98.5%	70.9%	102%	101%	95.7%	92.7%	68.6%	6	1.4	2.5								
N=c1ccn2c(n1)O[C@H]1[C@H](O)[C@@H](CO)O[C@H]12 [Cyclocytidine HCl]	2.7	4	0.115 µM	98.1%	97.1%	98.5%	87.4%	58.3%	104%	103%	74.1%	38%	37.7%	95.1%	99.9%	99.8%	97.2%	74.8%	88.4%	99.2%	83.1%	80.6%	77.8%	15	1.4	3.7	> 10 µM	91.5%	99.2%	101%	93%	65.9%		
COc1cc(OC)c(/C=C2/C(=O)Nc3ccccc32)c(OC)c1 [IC261]	2.4	7.2	2.24 µM	99%	99.2%	102%	69.2%	39.1%	97.5%	102%	108%	92.9%	37.1%	95%	99.8%	98.5%	86%	41.6%	96.9%	92.9%	95.1%	90.5%	57.6%	4.6	5.4	3.7		90.1%	97%	95.9%	96.7%	61.8%	0.991 µM	1.58 µM
NC[C@@H]1O[C@H](O[C@@H]2[C@@H](CO)OC(O[C@@H]3[C@@H](O)[C@H](N)C[C@H](N)[C@H]3OC3O[C@H](CN)[C@@H](O)[C@H](O)[C@H]3N)[C@@H]2O)[C@H](N)[C@@H](O)[C@@H]1O (some centres not stated) [NEOMYCIN TRISULFATE]																			96.6%	103%	96.3%	91.7%	97.3%			0	> 10 µM							
CN(C)CCOc1ccc(/C(=C(/CCCl)c2ccccc2)c2ccccc2)cc1 [Toremifene citrate]	3.4	0		99.6%	99.3%	99.8%	97.6%	91.9%	110%	103%	104%	90%	68.8%	106%	103%	105%	99%	87.8%	109%	98.8%	93.7%	96.3%	60.4%	2.8	0.1	2.6		94.1%	100%	88.7%	90.4%	57.5%	> 10 µM	> 10 µM
O=C(CCCN1CC=C(n2c(=O)[nH]c3ccccc32)CC1)c1ccc(F)cc1 [droperidol]			> 10 µM						116%	113%	106%	108%	89.1%											0										
COc1ccc(-c2oc3c(CC=C(C)C)c(O)cc(O)c3c(=O)c2O)cc1 [icaritin]		0		92.9%	98.9%	96.7%	93.3%	107%																									> 10 µM	
O.O.O.O.O=C([O-])CC(O)(CC(=O)[O-])C(=O)[O-].[Li+].[Li+].[Li+] [lithium-citrate]	0	0																							0									
CN1C(=O)N(C)C2C1N(C)C(=O)N2C (configuration not stated) [mebicar]			> 10 µM						110%	107%	114%	97.9%	92.2%	104%	104%	99.8%	106%	102%	101%	106%	98.5%	97.9%	95.8%	0	0	0	> 10 µM							> 10 µM
CCCCC1C(=O)N(c2ccccc2)N(c2ccccc2)C1=O [phenylbutazone]	0	0																						0	0									
COc1ccc(Cl)c(Nc2nc3ccccc3nc2NS(=O)(=O)c2cccc(NC(=O)C(C)(C)N)c2)c1 [pilaralisib]	3.5	0.6		97%	98.7%	93.8%	99.4%	81.2%	96.9%	97.5%	96.9%	86.6%	57.9%	97.9%	94.4%	98.9%	94.1%	81.4%	91.3%	96.4%	109%	93.9%	68.3%	3.8	1.1	2.4		93.9%	86%	96.8%	88%	60.2%	> 10 µM	> 10 µM
O=C(CCBr)N1CCN(C(=O)CCBr)CC1 [pipobroman]			> 10 µM						90.2%	112%	101%	83.7%	102%	97.8%	104%	99.7%	97.7%	94%	115%	115%	97.3%	114%	99%	0	0	0	> 10 µM							> 10 µM
O=C(O)c1c(Cl)c(Cl)c(Cl)c(Cl)c1-c1c2cc(I)c(=O)c(I)c-2oc2c(I)c(O)c(I)cc12 [rose-bengal]	3 ± 1.4	3.7 ± 0.42		97.6 ± 4%	99.6%	101 ± 3%	90.5 ± 0.42%	57.1 ± 5.8%	98.5 ± 1.1%	92.7 ± 7%	102 ± 3.8%	86.2 ± 5.3%	61.6 ± 4.2%	99.5 ± 3%	101 ± 7.5%	98.8 ± 0.28%	92.65 ± 0.49%	54 ± 5.6%	96.1 ± 5.2%	93.7 ± 6.9%	98.4 ± 7.9%	83.3 ± 0.92%	52.2 ± 6.1%	3.8 ± 0.85	3.6 ± 0.42	4.6 ± 0.14		96 ± 5.7%	96.7 ± 3.9%	97.2 ± 4.7%	97.8 ± 12%	54.4 ± 0.71%		
O=C(O)C(O)C(O)C(=O)O (configuration not stated) [tartaric-acid]	0	0																						0	0									
CC(C)(C)c1cc(/C=C(\C#N)C(N)=S)cc(C(C)(C)C)c1O [tyrphostin-AG-879]	2.9	2.6	3.56 µM	97.4%	97.5%	94.3%	100%	51%	93.6%	94.7%	104%	106%	27.5%	98.9%	98.7%	98.7%	98.2%	65.7%	99.3%	94.6%	96.9%	93.2%	50.5%	3.6	1.8	3.8		101%	97.1%	99.4%	91%	66.8%		
CN[C@H]1CN(c2ccc3c(=O)c(C(=O)O)cn(-c4nccs4)c3n2)C[C@@H]1OC [voreloxin]	4.1	4	1.29 µM	96.9%	96.2%	96.7%	88.1%	56.1%	90.7%	108%	88.5%	72.6%	29.1%	100%	97.6%	103%	98%	38.3%	94.1%	93.2%	99.9%	91.6%	55.1%	6.9	3.6	3.7		101%	98.9%	104%	85.6%	58.9%		2.93 µM
Cc1cccc(C)c1NC(=O)/N=C1\CCCN1C [xilobam]	0	0																						0	0									
